Measurements from article PMC7140498, “Predicting liver cytosol stability of small molecules” (Journal of Cheminformatics, 2020).
Blank lines part the entries; values can stand above or below the molecule they belong to.

Tests used:
[1] = Metabolic stability assay (substrate depletion) in mouse liver cytosol fractions; settings: external validation, sheet Mouse; for t1/2 [min] (Left): left compound; for half-life at 1 μM: male, CD-1, mouse, liver cytosol fractions, pH 7.4, t1/2 [min] (Right), right compound
Protocol: (§1) Our assay (384-well format) consisted of two parts; a robotic system for incubation and sample clean up and an integrated LC/MS method to calculate the percent remaining of parent compound. Briefly, each reaction mixture (110 μL) consisted of a test compound (1 μM) and either human or mouse cytosol fractions (2 mg/mL) in phosphate buffer (100 mM) at pH 7.4. Samples were incubated in 384-well plates at 37 °C for 0, 5, 10, 15, 30 and 60 min. Sample analysis and t1/2 calculations were performed using a previously described method [15]. […] A set of control compounds for low and high cytosolic stability were routinely run in each plate.

[2] = Metabolic stability assay (substrate depletion) in human liver cytosol fractions; settings: for half-life at 1 μM: both, human, liver cytosol fractions
Protocol: as §1

[3] = external validation, sheet Human, left compound
[4] = pH 7.4, t1/2 [min] (Right), external validation, sheet Human, right compound

Compound: CCN1c2cc(C(=O)Nc3ccc(Cl)cc3)ccc2C(=O)N2CCCCC21 (centres unmarked)
t1/2 [min] (Left) [1]: 25.75 min

Compound: CCN1c2cc(C(=O)Nc3ccc(Cl)cc3)ccc2C(=O)N2CCCCCC21 (centres unmarked)
t1/2 [min] (Left) [1]: 56.1 min

half-life at 1 μM [1]: 1.34 h
Compound: CCOc1cc(=O)n2c(c1C(=O)Nc1ccc(Cl)c(F)c1)CCCC2

Compound: CCOc1cc(=O)n2c(c1C(=O)Nc1ccc(Cl)cc1)CCCC2
t1/2 [min] (Left) [1]: 94.08 min

half-life at 1 μM [1]: > 2 h
Compound: CN1CCN(c2nc3c(c(=O)[nH]2)CCN(Cc2ccc(Cl)c(F)c2)CC3)CC1

Compound: CN1C(=O)CO[C@H]2CN(Cc3ccc(Cl)cc3)C[C@H]21
t1/2 [min] (Left) [1]: 116.11 min

half-life at 1 μM [1]: 0.524 h
Compound: CN1c2cc(C(=O)Nc3ccc(Cl)c(F)c3)ccc2C(=O)N2CCCCC21 (centres unmarked)

half-life at 1 μM [1]: 0.383 h
Compound: CN1c2cc(C(=O)Nc3ccc(Cl)c(F)c3)ccc2C(=O)N2CCCCCC21 (centres unmarked)

Compound: CN1c2cc(C(=O)Nc3ccc(Cl)cc3)ccc2C(=O)N2CCCCC21 (centres unmarked)
t1/2 [min] (Left) [1]: 83.39 min

Compound: CN1c2cc(C(=O)Nc3ccc(Cl)cc3)ccc2C(=O)N2CCCCCC21 (centres unmarked)
t1/2 [min] (Left) [1]: 63.37 min

half-life at 1 μM [1]: > 2 h
Compound: CN(C)c1nc2c(c(=O)[nH]1)CCN(Cc1ccc(Cl)c(F)c1)CC2

Compound: CN(C)c1nc2c(c(=O)[nH]1)CCN(Cc1ccc(Cl)cc1)CC2
t1/2 [min] (Left) [1]: 114.48 min

Compound: CN(Cc1cccnc1)c1nc2c(c(=O)[nH]1)CCN(Cc1ccc(Cl)cc1)CC2
t1/2 [min] (Left) [1]: 74.11 min

Compound: COc1ccc(CN2C[C@H]3CN(Cc4ccc(Cl)cc4)CCN3C2=O)cc1
t1/2 [min] (Left) [1]: 82.24 min

half-life at 1 μM [1]: > 2 h
Compound: COc1cccc(C(=O)NCC2CCCN(Cc3cc[nH]n3)C2)c1OC (centres unmarked)

Compound: Cc1cccc(-c2noc([C@@H]3C[C@@H](O)CN3Cc3ccc(Cl)cc3)n2)c1
t1/2 [min] (Left) [1]: 23.64 min

Compound: FC(F)(F)c1ccc2nc([C@H]3CCN(Cc4ccc(Cl)cc4)C3)[nH]c2c1
t1/2 [min] (Left) [1]: 56.67 min

half-life at 1 μM [1]: 0.921 h
Compound: O=C1[C@H]2CN(Cc3ccc(Cl)c(F)c3)C[C@H]2C(=O)N1Cc1ccc2c(c1)OCO2

Compound: O=C1[C@H]2CN(Cc3ccc(Cl)cc3)C[C@H]2C(=O)N1CCc1ccccc1
t1/2 [min] (Left) [1]: 47.51 min

Compound: O=C1[C@H]2CN(Cc3ccc(Cl)cc3)C[C@H]2C(=O)N1Cc1ccc2c(c1)OCO2
t1/2 [min] (Left) [1]: 66.66 min

Compound: O=C(Nc1ccc(-c2nnc3n2CCCC3)cc1)c1ccc(Cl)cc1
t1/2 [min] (Left) [1]: 117.12 min

Compound: O=C(Nc1cccc(-c2nnc3n2CCCC3)c1)c1ccc(Cl)cc1
t1/2 [min] (Left) [1]: 56.47 min

half-life at 1 μM [1]: 1.54 h
Compound: O=c1[nH]c(N2CCOCC2)nc2c1CCN(Cc1ccc(Cl)c(F)c1)CC2

Compound: N#Cc1cccc(-c2c(C(=O)NC3CC3)nc3sccn23)c1 [N#Cc1cccc(-c2c(C(=O)NC3CC3)nc3sccn23)c1]
t1/2 [min] (Left) [2, 3]: 95.2 min

Compound: N#Cc1cccc(CN2CCOC[C@H](O)C2)c1 [N#Cc1cccc(CN2CCOC[C@H](O)C2)c1]
t1/2 [min] (Left) [2, 3]: 51.1 min

Compound: N#Cc1ccccc1CN1CCC2(CC1)CC(O)CCO2 (centres unmarked) [N#Cc1ccccc1CN1CCC2(CC1)CC(O)CCO2]
t1/2 [min] (Left) [2, 3]: 80.3 min

Compound: O=C(Nc1cnc(-c2ccccc2)nc1)c1cccc(F)c1 [O=C(Nc1cnc(-c2ccccc2)nc1)c1cccc(F)c1]
t1/2 [min] (Left) [2, 3]: 52 min

Compound: O=C(c1cccs1)N1CCC(Oc2cccc(F)c2)C1 (centres unmarked) [O=C(c1cccs1)N1CCC(Oc2cccc(F)c2)C1]
t1/2 [min] (Left) [2, 3]: 17.4 min

half-life at 1 μM [2, 4]: 0.638 h
Compound: O=C(c1cccs1)N1CCC(Oc2ccccc2)C1 (centres unmarked) [O=C(c1cccs1)N1CCC(Oc2ccccc2)C1]

Compound: O=C(c1ccoc1)N1CCC(Oc2cccc(F)c2)C1 (centres unmarked) [O=C(c1ccoc1)N1CCC(Oc2cccc(F)c2)C1]
t1/2 [min] (Left) [2, 3]: 70.5 min

half-life at 1 μM [2, 4]: > 2 h
Compound: O=C(c1ccoc1)N1CCC(Oc2ccccc2)C1 (centres unmarked) [O=C(c1ccoc1)N1CCC(Oc2ccccc2)C1]

half-life at 1 μM ([2]; pH 7.4, t1/2 [min] (Left), external validation, sheet Human, left compound): 1.38 h
half-life at 1 μM ([2]; pH 7.4, t1/2 [min] (left), in-house library pair, human transforms, left compound): 1.38 h
Compound: O=C(c1ccsc1)N1CCC(Oc2cccc(F)c2)C1 (centres unmarked) [O=C(c1ccsc1)N1CCC(Oc2cccc(F)c2)C1]

Compound: O=c1c2nc(Nc3cccc(F)c3)ccc2ncn1-c1ccccc1 [O=c1c2nc(Nc3cccc(F)c3)ccc2ncn1-c1ccccc1]
t1/2 [min] (Left) [2, 3]: 93.9 min

Compound: O=c1c2nc(Nc3cccc(F)c3)ccc2ncn1-c1cccnc1 [O=c1c2nc(Nc3cccc(F)c3)ccc2ncn1-c1cccnc1]
t1/2 [min] (Left) [2, 3]: 96.4 min
